From patent US20170050957A1, “4-AMINO-6-(HETEROCYCLIC)PICOLINATES AND 6-AMINO-2-(HETEROCYCLIC)PYRIMIDINE-4-CARBOXYLATES AND THEIR USE AS HERBICIDES” (Dow AgroSciences LLC, priority 2013, published 2017)
Like-named read-outs stand apart in the source and are kept apart here.

What was measured:
[1] = test system: Key Grass and Sedge Weeds as well as Grass Crops; experiment: Post-emergent Test II herbicidal activity (Table 16); type: in vivo; conditions: post-emergence, 336 h, 14 d; for pest or weed control at 35 g/ha: 35 g ai/ha; for pest or weed control at 70 g/ha: 70 g ai/ha; for pest or weed control at 140 g/ha: 140 g ai/ha
How it was run: (§1)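 Greenhouse-grown seedlings at first/second true leaf receive a track spray at 187 L/ha, using a highest rate plus two-fold serial dilutions down to 1/16×. Watering is by subirrigation to avoid wash-off. Percent injury (0-100) is judged by eye at 14 d against untreated plants.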

[2] = test system: Key Broadleaf Weed and Crop Species; experiment: Post-emergent Test II herbicidal activity (Table 15); type: in vivo; conditions: post-emergence, 336 h, 14 d; for pest or weed control at 35 g/ha: 35 g ai/ha; for pest or weed control at 70 g/ha: 70 g ai/ha; for pest or weed control at 140 g/ha: 140 g ai/ha
How it was run: as §1

[3] = Cyperus esculentus, yellow nutsedge (Cyperus esculentus), read-out: Visual Growth Reduction (%) 14 Days After Application, CYPES
[4] = Echinochloa crus-galli, barnyardgrass (Echinochloa crus-galli), read-out: Visual Growth Reduction (%) 14 Days After Application, ECHCG
[5] = Oryza sativa, rice (Oryza sativa), read-out: Visual Growth Reduction (%) 14 Days After Application, ORYSA
[6] = Setaria faberi, giant foxtail (Setaria faberi), read-out: Visual Growth Reduction (%) 14 Days After Application, SETFA
[7] = Triticum aestivum, wheat, spring (Triticum aestivum), read-out: Visual Growth Reduction (%) 14 Days After Application, TRZAS
[8] = Zea mays, maize, corn (Zea mays), read-out: Visual Growth Reduction (%) 14 Days After Application, ZEAMX
[9] = Abutilon theophrasti, velvetleaf (Abutilon theophrasti), read-out: Visual Growth Reduction (%) 14 Days After Application, ABUTH
[10] = Amaranthus retroflexus, redroot pigweed (Amaranthus retroflexus), read-out: Visual Growth Reduction (%) 14 Days After Application, AMARE
[11] = Brassica napus, oilseed rape, canola (Brassica napus), read-out: Visual Growth Reduction (%) 14 Days After Application, BRSNN
[12] = Chenopodium album, lambsquarters (Chenopodium album), read-out: Visual Growth Reduction (%) 14 Days After Application, CHEAL
[13] = Euphorbia heterophylla, wild poinsettia (Euphorbia heterophylla), read-out: Visual Growth Reduction (%) 14 Days After Application, EPHHL
[14] = Helianthus annuus, sunflower (Helianthus annuus), read-out: Visual Growth Reduction (%) 14 Days After Application, HELAN

| melting point [°C] | SMILES | pest or weed control at 35 g/ha [1, 3] [%] | pest or weed control at 70 g/ha [1, 3] [%] | pest or weed control at 140 g/ha [1, 3] [%] | pest or weed control at 35 g/ha [1, 4] [%] | pest or weed control at 70 g/ha [1, 4] [%] | pest or weed control at 140 g/ha [1, 4] [%] | pest or weed control at 35 g/ha [1, 5] [%] | pest or weed control at 70 g/ha [1, 5] [%] | pest or weed control at 140 g/ha [1, 5] [%] | pest or weed control at 35 g/ha [1, 6] [%] | pest or weed control at 70 g/ha [1, 6] [%] | pest or weed control at 140 g/ha [1, 6] [%] | pest or weed control at 35 g/ha [1, 7] [%] | pest or weed control at 70 g/ha [1, 7] [%] | pest or weed control at 140 g/ha [1, 7] [%] | pest or weed control at 35 g/ha [1, 8] [%] | pest or weed control at 70 g/ha [1, 8] [%] | pest or weed control at 140 g/ha [1, 8] [%] | pest or weed control at 35 g/ha [2, 9] [%] | further results |
| --- | --- | --- | --- | --- | --- | --- | --- | --- | --- | --- | --- | --- | --- | --- | --- | --- | --- | --- | --- | --- | --- |
| 109 | COC(=O)c1nc(-c2cc3occc3cc2F)c(F)c(N)c1Cl [Compound 2.10] | 0 to 29 | 0 to 29 | 30 to 44 | 60 to 74 | 60 to 74 | 85 to 94 | 0 to 29 | 30 to 44 | 30 to 44 | 60 to 74 | 60 to 74 | 75 to 84 | 0 to 29 | 30 to 44 | 60 to 74 | 0 to 29 | 30 to 44 | 45 to 59 | 60 to 74 | pest or weed control at 70 g/ha [2, 9]: 60 to 74%; pest or weed control at 140 g/ha [2, 9]: 85 to 94%; pest or weed control at 35 g/ha [2, 10]: 85 to 94%; pest or weed control at 70 g/ha [2, 10]: 95 to 100%; pest or weed control at 140 g/ha [2, 10]: 95 to 100%; pest or weed control at 35 g/ha [2, 11]: 30 to 44%; pest or weed control at 70 g/ha [2, 11]: 60 to 74%; pest or weed control at 140 g/ha [2, 11]: 75 to 84%; pest or weed control at 35 g/ha [2, 12]: 85 to 94%; pest or weed control at 70 g/ha [2, 12]: 95 to 100%; pest or weed control at 140 g/ha [2, 12]: 85 to 94%; pest or weed control at 35 g/ha [2, 13]: 95 to 100%; pest or weed control at 70 g/ha [2, 13]: 95 to 100%; pest or weed control at 140 g/ha [2, 13]: 95 to 100%; pest or weed control at 35 g/ha [2, 14]: 75 to 84%; pest or weed control at 70 g/ha [2, 14]: 85 to 94%; pest or weed control at 140 g/ha [2, 14]: 95 to 100% |
| 148 | COC(=O)c1nc(-c2ccc3ccoc3c2F)cc(N)c1Cl [Compound 2.11] | 0 to 29 | 0 to 29 | 30 to 44 | 85 to 94 | 95 to 100 | 95 to 100 | 0 to 29 | 0 to 29 | 0 to 29 | 45 to 59 | 60 to 74 | 75 to 84 | 0 to 29 | 0 to 29 | 30 to 44 | 45 to 59 | 60 to 74 | 85 to 94 | 95 to 100 | pest or weed control at 70 g/ha [2, 9]: 95 to 100%; pest or weed control at 140 g/ha [2, 9]: 95 to 100%; pest or weed control at 35 g/ha [2, 10]: 95 to 100%; pest or weed control at 70 g/ha [2, 10]: 95 to 100%; pest or weed control at 140 g/ha [2, 10]: 95 to 100%; pest or weed control at 35 g/ha [2, 11]: 75 to 84%; pest or weed control at 70 g/ha [2, 11]: 85 to 94%; pest or weed control at 140 g/ha [2, 11]: 95 to 100%; pest or weed control at 35 g/ha [2, 12]: 95 to 100%; pest or weed control at 70 g/ha [2, 12]: 95 to 100%; pest or weed control at 140 g/ha [2, 12]: 95 to 100%; pest or weed control at 35 g/ha [2, 13]: 95 to 100%; pest or weed control at 70 g/ha [2, 13]: 95 to 100%; pest or weed control at 140 g/ha [2, 13]: 95 to 100%; pest or weed control at 35 g/ha [2, 14]: 45 to 59%; pest or weed control at 70 g/ha [2, 14]: 60 to 74%; pest or weed control at 140 g/ha [2, 14]: 75 to 84% |
| 130 | COC(=O)c1nc(-c2cc3occc3cc2F)cc(N)c1Cl [Compound 2.12] | 0 to 29 | 0 to 29 | 0 to 29 | 95 to 100 | 95 to 100 | 95 to 100 | 0 to 29 | 0 to 29 | 0 to 29 | 45 to 59 | 60 to 74 | 60 to 74 | 0 to 29 | 0 to 29 | 0 to 29 | 0 to 29 | 30 to 44 | 60 to 74 | 85 to 94 | pest or weed control at 70 g/ha [2, 9]: 95 to 100%; pest or weed control at 140 g/ha [2, 9]: 95 to 100%; pest or weed control at 35 g/ha [2, 10]: 95 to 100%; pest or weed control at 70 g/ha [2, 10]: 95 to 100%; pest or weed control at 140 g/ha [2, 10]: 95 to 100%; pest or weed control at 35 g/ha [2, 11]: 75 to 84%; pest or weed control at 70 g/ha [2, 11]: 85 to 94%; pest or weed control at 140 g/ha [2, 11]: 95 to 100%; pest or weed control at 35 g/ha [2, 12]: 95 to 100%; pest or weed control at 70 g/ha [2, 12]: 95 to 100%; pest or weed control at 140 g/ha [2, 12]: 95 to 100%; pest or weed control at 35 g/ha [2, 13]: 95 to 100%; pest or weed control at 70 g/ha [2, 13]: 95 to 100%; pest or weed control at 140 g/ha [2, 13]: 95 to 100%; pest or weed control at 35 g/ha [2, 14]: 30 to 44%; pest or weed control at 70 g/ha [2, 14]: 60 to 74%; pest or weed control at 140 g/ha [2, 14]: 60 to 74% |
